According to publication PMC6264317, “Acetylcholinesterase-inhibiting Alkaloids from Zephyranthes concolor” (Molecules, 2011):
≈ marks a conversion by molar mass, not a printed value. Read-outs that look alike come from different tables or passages of the source.

Legend:
[1] = Cytotoxicity in non-infected MT-4 cells (MTT); type: cell-based, human; details: human
Method: (§1) Anti-HIV activity and cytotoxicity were evaluated in human MT-4 cells based on viability of cells that have been infected or not infected with HIV-1 following exposure to various concentrations of the test compound according to the procedure previously described. After proliferation for 5 days the number of viable MT-4 cells was quantified by tetrazolium-based colorimetric method (MTT). The HIV-1 NL4-3 virus used was a molecular clone obtained from the National Institute of Health (Bethesda, USA) that was propagated and tittered in MT-4 cells. All anti-HIV evaluations were done in triplicate in two separate experiments.

[2] = test system: HIV-1; details: human MT4 cells; cited from earlier work
[3] = test system: electric eel acetylcholinesterase; details: cited from earlier work
[4] = test system: human MT4 cells; details: cited from earlier work
[5] = test system: HIV-1 (NL4-3); experiment: Anti-HIV activity in MT-4 cells (MTT viability of infected cells); type: cell-based; details: for EC50: Human immunodeficiency virus 1, NL43, MT4, 120 h, read-out: EC50 HIV-1 (NL4-3): effective concentration needed to inhibit 50% HIV-induced cell death, 5 days
Method: as §1

[6] = target: T1, electric eel acetylcholinesterase (Electrophorus electricus, UniProt O42275); experiment: biochemical
T1 construct: purchased Sigma Aldrich Chemie (Stenheim, Germany) type V-S
T1 sequence (O42275 24-633): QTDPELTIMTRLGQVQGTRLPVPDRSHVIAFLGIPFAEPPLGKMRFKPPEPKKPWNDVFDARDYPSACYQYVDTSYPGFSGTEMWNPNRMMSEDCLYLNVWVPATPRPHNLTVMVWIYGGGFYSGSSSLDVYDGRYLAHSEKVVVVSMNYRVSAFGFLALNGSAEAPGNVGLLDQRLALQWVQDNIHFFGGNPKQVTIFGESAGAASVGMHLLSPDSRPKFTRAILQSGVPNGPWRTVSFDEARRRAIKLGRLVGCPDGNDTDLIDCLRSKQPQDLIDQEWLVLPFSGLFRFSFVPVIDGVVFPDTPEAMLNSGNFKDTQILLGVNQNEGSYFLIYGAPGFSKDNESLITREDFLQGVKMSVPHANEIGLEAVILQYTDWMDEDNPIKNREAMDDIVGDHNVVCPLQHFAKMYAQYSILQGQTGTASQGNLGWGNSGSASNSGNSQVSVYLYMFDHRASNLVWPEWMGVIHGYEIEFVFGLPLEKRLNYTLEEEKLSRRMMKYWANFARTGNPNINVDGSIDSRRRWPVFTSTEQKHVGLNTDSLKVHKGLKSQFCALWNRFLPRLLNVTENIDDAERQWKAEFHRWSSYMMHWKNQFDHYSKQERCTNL
Method: The assay for measuring acetylcholinesterase (AChE) inhibitory activity was performed in 96 well microtitre plates as previously described. […] Acetylcholinesterase from Electrophorus electricus L. (electric eel) type V-S lyophilized powder, acetyl-thiocholine iodide (ATCI), and 5,5′-dithio-bis[2-nitrobenzoic acid] (DNTB) were obtained from Sigma Aldrich Chemie (Stenheim, Germany). Fifty microliters of AChE solution (500 U/mL) in phosphate buffer (8 mM K2HPO4, 2.3 mM NaH2PO4, 0.15 M NaCl, 0.05% Tween 20, pH 7.6), and 50 μL of the compound dissolved in the same buffer were added to each of the wells. The plates were incubated for 30 min at room temperature before addition of 100 μL of the substrate solution (0.1 M NaH2PO4, […], 0.6 mM ATCI in Millipore water, pH 7.5). Absorbance was recorded in a Labsystems Microplate Reader (Helsinki, Finland) at 405 nm after 6 min. Enzyme activity was calculated as percentage compared to an assay using a buffer without the tested compound. The AChE inhibitory data were analysed with the Prism software package (Graph Pad Inc., San Diego, USA).

[7] = test system: human MT-4 cells; experiment: Cytotoxicity in non-infected MT-4 cells (MTT); type: cell-based; details: 5 days
Method: as §1

[8] = means ± SD of three determinations (10^−8 to 10^−3 M), read-out: EC50 (M), acetylcholinesterase inhibitory activity
[9] = in vitro, read-out: EC50, inhibition of electric eel acetylcholinesterase in vitro

For `O[C@H]1[C@H]2c3cc4c(cc3CN3CCC(=C[C@@H]1O)[C@H]23)OCO4` [Lycorine (4), lycorine], which CC50 at 5 days [1] is on record?
Its CC50 at 5 days is 0.48 µg/mL (≈ 1.67 µM).

What about the “anti-HIV-1 activity ID50” value [2] of the same compound?
The value was 0.4 µg/mL.

And the “therapeutic index TI50” value [2]?
Its value is 1.9.

What about the “acetylcholinesterase inhibitory activity in words” value [3] of the same compound?
Its value is “inactive”.

What about the “cytotoxicity TC50” value [4] of the same compound?
The value was 0.75 µg/mL.

And the EC50 [5]?
The EC50 was > 0.5 µg/mL.

With `COc1ccc2c3c1O[C@H]1C[C@H](O)CC[C@@]31CCNC2` [epinorlycoramine] as the compound, how does the “acetylcholinesterase inhibitory activity in words” value [3] read?
Its value is “completely lost”.

Which “acetylcholinesterase inhibitory activity in words” value [3] does the source give for `COc1ccc2c3c1O[C@H]1C[C@@H](O)CC[C@]31CCN(C)C2` [lycoramine] here?
Its value is “completely lost”.

With `c1cc(CN2CCCNCCNCCCNCC2)ccc1CN1CCCNCCNCCCNCC1` [AMD3100, reference compound] as the compound, how does the CC50 at 5 days [1] read?
Its CC50 at 5 days is > 5 µg/mL.

And the EC50 [5]?
The EC50 was 0.001 µg/mL (≈ 0.00199 µM).

With `c1ccc2c(c1)ncc1cc3c(cc12)OCO3` [trisphaeri-dine, trisphaeridine] as the compound, how does the “therapeutic index TI50” value [2] read?
The value was “even lower therapeutic indices than lycorine”.

For `COc1cc2c(cc1O)[C@@H]1[C@H](OC2=O)[C@@H](OC)[C@@H]2O[C@@]23CCN(C)[C@@H]13` [Galwesine (5), galwesine], which CC50 at 5 days [1] is on record?
The CC50 at 5 days was 71.4 µg/mL (≈ 206 µM).

What about the “acetylcholinesterase inhibition in words” value ([6]; at 10^−3 M) of the same compound?
Its value is “inactive”.

What about the EC50 [6, 8] of the same compound?
Its EC50 is > 0.001 M.

What about the EC50 [5] of the same compound?
The EC50 was > 71.4 µg/mL.

Which CC50 at 5 days [1] does the source give for `COc1ccc2c3c1O[C@H]1C[C@@H](O)C=C[C@@]31CC[N+](C)([O-])C2` (some centres unmarked) [Galanthamine N-oxide (3), galanthamine N-oxide] here?
The CC50 at 5 days was > 25 µg/mL.

What about the EC50 [6, 9] of the same compound?
Its EC50 is 2.6e-05 M.

And the EC50 [6, 8]?
The EC50 was 2.62e-05 M.

What about the EC50 [5] of the same compound?
Its EC50 is > 25 µg/mL.

With `Cc1cn([C@H]2C[C@H](N=[N+]=[N-])[C@@H](CO)O2)c(=O)[nH]c1=O` [AZT, reference compound] as the compound, how does the “CC50 No virus: concentration needed to induce 50% death of non-infected cells” value [7] read?
The value was >1 µg/mL.

What about the “EC50 HIV-1 (NL4-3): effective concentration needed to inhibit 50% HIV-induced cell death” value ([5]; 5 days) of the same compound?
Its value is 0.0007 µg/mL (≈ 0.00262 µM).

For `COc1cc2c(cc1OC)[C@H]1[C@H]3C(=CC[C@H]1OC2=O)CCN3C` [homolycorine], which “therapeutic index TI50” value [2] is on record?
Its value is “even lower therapeutic indices than lycorine”.

For `CO[C@@H]1C=C[C@@]23c4cc5c(cc4CN(C[C@@H]2O)[C@H]3C1)OCO5` [haemanthamine], which “therapeutic index TI50” value [2] is on record?
The value was “even lower therapeutic indices than lycorine”.

For `COc1ccc2c3c1O[C@H]1C[C@H](O)C=C[C@@]31CCNC2` [Epinorgalanthamine (6), epinorgalanthamine], which CC50 at 5 days [1] is on record?
The CC50 at 5 days was 13 µg/mL (≈ 47.6 µM).

And the EC50 ([3]; previously reported, read-out: acetylcholinesterase inhibitory properties)?
Its EC50 is 9.6 µM.

What about the EC50 [5] of the same compound?
The EC50 was > 13 µg/mL.

What does the source list for `COc1ccc2c3c1O[C@H]1C[C@@H](O)C=C[C@@]31CCN(C)C2` [Galanthamine (2), galanthamine, reference compound]?
CC50 at 5 days [1]: > 25 µg/mL; EC50 [5]: > 25 µg/mL

With `COC1C=CC23CCN(C)Cc4ccc(O)c(c42)OC3C1` (centres unmarked) [Chlidanthine (1), chlidanthine] as the compound, how does the CC50 at 5 days [1] read?
The CC50 at 5 days was > 25 µg/mL.

What about the EC50 [6, 9] of the same compound?
Its EC50 is 2.4e-05 M.

What about the EC50 [6, 8] of the same compound?
Its EC50 is 2.41e-05 M.

And the EC50 [5]?
The EC50 was > 25 µg/mL.

For `CN1CC[C@@]23C=C[C@H](O)C[C@@H]2Oc2c(O)ccc(c23)C1` [sanguinine], which “increase of the AChE inhibitory activity relative to galanthamine” value [3] is on record?
Its value is ~10 fold.

With `Cc1ccnc2c1NC(=O)c1cccnc1N2C1CC1` [Nevirapine, reference compound] as the compound, how does the CC50 at 5 days [1] read?
Its CC50 at 5 days is > 2 µg/mL.

What about the EC50 [5] of the same compound?
Its EC50 is 0.034 µg/mL (≈ 0.128 µM).
